Experimental data from patent publication US7649002B2, “(3,5-dimethylpiperidin-1yl)(4-phenylpyrrolidin-3-yl)methanone derivatives as MCR4 agonists” (Pfizer Inc, priority 2004, dated 2010).
Where a name gives a salt, the structure may show the parent alone.

What follows are molecules tested against T1, human MCR4 receptor (Homo sapiens, UniProt P32245) (assay: MCR4 improved functional assay (Protocol E): CHO-K1-MC4R-CRE-β-lactamase reporter). Settings: Protocols C or E, read-out: functional potency at the MC4 receptor (EC50).
T1 construct: expressed in transfected cells
T1 sequence (P32245 whole entry): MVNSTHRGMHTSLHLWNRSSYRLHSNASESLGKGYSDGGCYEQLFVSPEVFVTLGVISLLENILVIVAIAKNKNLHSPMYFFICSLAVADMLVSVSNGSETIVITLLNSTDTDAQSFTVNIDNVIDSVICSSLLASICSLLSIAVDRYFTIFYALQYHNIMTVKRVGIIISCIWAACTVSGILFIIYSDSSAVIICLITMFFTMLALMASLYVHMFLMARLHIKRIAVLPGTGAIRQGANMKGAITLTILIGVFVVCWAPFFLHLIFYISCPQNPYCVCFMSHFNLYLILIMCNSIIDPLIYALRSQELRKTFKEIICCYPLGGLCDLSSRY
Type: cell-based
Description: (ii) MCR5 Standard Functional Assay Methodology and MCR4 Improved Functional Assay Methodology [Assay Protocol D and E Respectively] […] These cell lines were engineered using protocols akin to those outlined by Zaccolo et al (Zaccolo, M., (2000) Nature, 2(1); 25-29). Compound-induced activation of the MCR5 or MCR4 receptors in these two cell lines stimulated the production, and intracellular accumulation, of the enzyme β-lactamase. The quantity of β-lactamase enzyme produced was directly proportional to the degree to which the test compound activated the MCR5 or MCR4 receptors present on these cells and was quantified using the P-lactamase gene reporter analysis kit that is commercially available from Invitrogen Life Technologies. An in-depth description of this technology and assay protocols are available from the Invitrogen web site (www.invitrogen.com). The protocol listed below provides a summary of that assay methodology. The quantity of β-lactamase enzyme produced by compound-induced activation of the MCR5 or MCR4 receptors expressed in these cell lines was quantified using a LjI Biosystems Analyst™ HT 96.384 plate reader set to excite at a wave length of 405 nm, and measure the energy emitted at wave lengths of 450 nm and 530 nm. Cellular responses were quantified by dividing the measured energy emitted at a wavelength of 450 nm by the measured energy emitted at a wavelength of 530 nm. […] CCF4-AM was dissolved in 100% DMSO to give a final solution concentration of 1 mM. This solution was termed Solution A. Probenecid was dissolved in 200 mM NaOH to give a final solution concentration of 200 mM. This solution was termed Solution D. Composition of the β-lactamase assay dye solution: for 1072 μL of assay dye solution combine: 12 μL of Solution A, 60 μL of Solution B, 925 μL of Solution C and 75 μL of Solution D. […] Cells were grown in T225 vent cap flasks containing 50 ml of growth medium and maintained in a cell incubator at a temperature of 37° C. and in an environment containing 5% CO2. The composition of the growth medium for the CHO-K1-MC5R-CRE-β-lactamase was 90% v/v DMEM supplemented with; Glutamax-1, 25 mM HEPES, 10% v/v foetal calf serum (FCS), 1 mM sodium pyruvate, 0.1 mM non essential amino acids and 800 μg/ml genetic in. For the CHO-K1-MC4R-CRE-β-lactamase this growth media was further supplemented with […] Zeocin. Cells were harvested when they reached 80-90% confluency by first removing the existing growth medium and then washing with PBS that had been pre-warmed to a temperature of 37° C. This PBS was then removed and 5 ml of cell dissociation fluid added to the flask. These cells were incubated for 5 minutes in a cell incubator set at a temperature of 37° C. and in an environment containing 5% CO2 to detach the cells. When cells were detached, pre-warmed growth media was added, the cells re-suspended and mixed gently to achieve a single cell suspension by pipetting. This cell suspension was then used for experimentation, or transferred into a new T225 flask to perpetuate the cell culture. […] For each assay the cell plates were then retuned to a cell incubator maintained at a temperature of 37° C. and in an environment containing 5% CO2 overnight before performing the assay on the second assay day. […] For the MCR4 improved functional assay methodology the solution of cyclohexamide was not added. Subsequently, 10 μL of the test compound solution was transferred to the assay plate. The assay plate was then transferred to a cell incubator, set at 37° C. and in an environment containing 5% CO2, and left for 4 hours for the MCR4 improved assay methodology, or 5 hours for the MCR5 standard assay methodology. After this incubation period the plate was removed from the incubator, 10 μL of the […] assay dye solution was added to each well and then the plate returned to the cell incubator.
For `C[C@@H]1CN(C(=O)[C@@H]2CN(c3ccncn3)C[C@H]2c2ccc(F)cc2F)C[C@H](C)[C@@]1(O)c1ccccn1` [Example 44, (3R,4R,5S)-1-{[(3S,4R)-4-(2,4-difluorophenyl)-1-pyrimidin-4-ylpyrrolidin-3-yl]carbonyl}-3,5-dimethyl-4-pyridin-2-ylpiperidin-4-ol hydrochloride], the EC50 was under 50 nM. Molecule `CC(C)N1C[C@@H](C(=O)N2C[C@@H](C)[C@](O)(c3ccc(Cl)cc3)[C@@H](C)C2)[C@H](c2ccc(F)cc2F)C1` [Example 50, (3R,4R,5S)-4-(4-chlorophenyl)-1-{[(3S,4R)-4-(2,4-difluorophenyl)-1-isopropylpyrrolidin-3-yl]carbonyl}-3,5-dimethylpiperidin-4-ol hydrochloride] has an EC50 of under 150 nM. `CC(C)N1C[C@@H](C(=O)N2C[C@@H](C)[C@](O)(c3ccc(F)c(F)c3)[C@@H](C)C2)[C@H](c2ccc(F)cc2F)C1` [Example 51, (3R,4R,5S)-4-(3,4-difluorophenyl)-1-{[(3S,4R)-4-(2,4-difluorophenyl)-1-isopropylpyrrolidin-3-yl]carbonyl}-3,5-dimethylpiperidin-4-ol hydrochloride] was tested, and the EC50 was under 50 nM. `CCN1C[C@@H](C(=O)N2C[C@@H](C)[C@](O)(c3ccc(OC)cc3)[C@@H](C)C2)[C@H](c2ccc(F)cc2F)C1` [Example 14, (3R,4R,5S)-1-{[(3S,4R)-4-(2,4-difluorophenyl)-1-ethylpyrrolidin-3-yl]carbonyl}-4-(4-methoxyphenyl)-3,5-dimethylpiperidin-4-ol hydrochloride] showed an EC50 of under 150 nM. For `C[C@@H]1CN(C(=O)[C@@H]2CN(c3ccncn3)C[C@H]2c2ccc(F)cc2F)C[C@H](C)[C@@]1(O)c1ccccc1` [Example 42, (3R,4R,5S)-1-{[(3S,4R)-4-(2,4-difluorophenyl)-1-pyrimidin-4-ylpyrrolidin-3-yl]carbonyl}-3,5-dimethyl-4-phenylpiperidin-4-ol hydrochloride], the EC50 was under 10 nM. `C[C@@H]1CN(C(=O)[C@@H]2CN(C(C)(C)C)C[C@H]2c2ccc(F)cc2F)C[C@H](C)[C@@]1(O)c1c(F)cccc1F` [Example 17, (3R,4R,5S)-1-[{(3S,4R)-1-tert-butyl-4-(2,4-difluorophenyl)pyrrolidin-3-yl]carbonyl}-4-(2,6-difluorophenyl)-3,5-dimethylpiperidin-4-ol hydrochloride] showed an EC50 of under 50 nM. In the case of `C[C@@H]1CN(C(=O)[C@@H]2CNC[C@H]2c2ccc(F)cc2F)C[C@H](C)[C@@]1(O)c1ccc(F)cc1F` [Example 16, (3R,4R,5S)-4-(2,4-difluorophenyl)-1-{[(3S,4R)-4-(2,4-difluorophenyl)pyrrolidin-3-yl]carbonyl}-3,5-dimethylpiperidin-4-ol hydrochloride], the EC50 is reported as under 150 nM. Work on `C[C@@H]1CN(C(=O)[C@@H]2CNC[C@H]2c2ccc(Cl)cc2)C[C@H](C)[C@@]1(O)c1ccccc1` [Example 48, (3R,4R,5S)-1-{[(3S,4R)-4-(4-Chlorophenyl)pyrrolidin-3-yl]carbonyl}-3,5-dimethyl-4-phenylpiperidin-4-ol hydrochloride] yielded an EC50 of under 150 nM. With `CC(C)N1C[C@@H](C(=O)N2C[C@@H](C)[C@](O)(c3ccc(F)cc3)[C@@H](C)C2)[C@H](c2ccc(F)cc2F)C1` [Example 10, (3R,4R,5S)-1-{[(3S,4R)-4-(2,4-difluorophenyl)-1-isopropylpyrrolidin-3-yl]carbonyl}-4-(4-fluorophenyl)-3,5-dimethylpiperidin-4-ol hydrochloride] the EC50 was under 150 nM. `C[C@@H]1CN(C(=O)[C@@H]2CN(c3cnccn3)C[C@H]2c2ccc(F)cc2F)C[C@H](C)[C@@]1(O)c1ccccc1` [Example 33, (3R,4R,5S)-1-{[(3S,4R)-4-(2,4-Difluorophenyl)-1-pyrazin-2-ylpyrrolidin-3-yl]carbonyl}-3,5-dimethyl-4-phenylpiperidin-4-ol hydrochloride] was tested, and the EC50 was under 150 nM. Work on `C[C@@H]1CN(C(=O)[C@@H]2CN(c3cncnc3)C[C@H]2c2ccc(F)cc2F)C[C@H](C)[C@@]1(O)c1ccccc1` [Example 36, (3R,4R,5S)-1-{[(3S,4R)-4-(2,4-Difluorophenyl)-1-pyrimidin-5-ylpyrrolidin-3-yl]carbonyl}-3,5-dimethyl-4-phenylpiperidin-4-ol hydrochloride] yielded an EC50 of under 150 nM. In the case of `C[C@@H]1CN(C(=O)[C@@H]2CN(c3cccnn3)C[C@H]2c2ccc(F)cc2F)C[C@H](C)[C@@]1(O)c1ccccn1` [Example 47, (3R,4R,5S)-1-{[(3S,4R)-4-(2,4-Difluorophenyl)-1-pyridazin-3-ylpyrrolidin-3-yl]carbonyl}-3,5-dimethyl-4-pyridin-2-ylpiperidin-4-ol hydrochloride], the EC50 is reported as under 10 nM. For `C[C@@H]1CN(C(=O)[C@@H]2CN(C(C)(C)C)C[C@H]2c2ccc(F)cc2F)C[C@H](C)[C@@]1(O)c1ccc(F)c(F)c1` [Example 8, (3R,4R,5S)-1-{[(3S,4R)-1-tert-Butyl-4-(2,4-difluorophenyl)pyrrolidin-3-yl]carbonyl}-4-(3,4-difluorophenyl)-3,5-dimethylpiperidin-4-ol hydrochloride], the EC50 was under 10 nM. `CC(C)N1C[C@@H](C(=O)N2C[C@@H](C)[C@](O)(c3ccc(F)cc3F)[C@@H](C)C2)[C@H](c2ccc(F)cc2F)C1` [Example 52, (3R,4R,5S)-4-(2,4-difluorophenyl)-1-{[(3S,4R)-4-(2,4-difluorophenyl)-1-isopropylpyrrolidin-3-yl]carbonyl}-3,5-dimethylpiperidin-4-ol hydrochloride] gave an EC50 of under 50 nM. Molecule `C[C@@H]1CN(C(=O)[C@@H]2CNC[C@H]2c2ccc(F)cc2F)C[C@H](C)[C@@]1(O)c1cccc(F)c1` [Example 20, (3R,4R,5S)-1-{[(3S,4R)-4-(2,4-difluorophenyl)pyrrolidin-3-yl]carbonyl}-4-(3-fluorophenyl)-3,5-dimethylpiperidin-4-ol hydrochloride] has an EC50 of under 150 nM. Work on `C[C@@H]1CN(C(=O)[C@@H]2CN(c3cccnc3)C[C@H]2c2ccc(F)cc2F)C[C@H](C)[C@@]1(O)c1ccccc1` [Example 34, (3R,4R,5S)-1-{[(3S,4R)-4-(2,4-Difluorophenyl)-1-pyridin-3-ylpyrrolidin-3-yl]carbonyl}-3,5-dimethyl-4-phenylpiperidin-4-ol hydrochloride] yielded an EC50 of under 10 nM. In the case of `CCC[C@@]1(O)[C@H](C)CN(C(=O)[C@@H]2CN(C(C)(C)C)C[C@H]2c2ccc(F)cc2F)C[C@@H]1C` [Example 40, (3R,4R,5S)-1-{[(3S,4R)-1-tert-Butyl-4-(24-difluorophenyl)pyrrolidin-3-yl]carbonyl}-3,5-dimethyl-4-propylpiperidin-4-ol hydrochloride], the EC50 is reported as under 150 nM. In the case of `C[C@@H]1CN(C(=O)[C@@H]2CN(C(C)(C)C)C[C@H]2c2ccc(F)cc2F)C[C@H](C)[C@@]1(O)c1ccc(F)cc1` [Example 9, (3R,4R,5S)-1-{[(3S,4R)-1-tert-butyl-4-(2,4-difluorophenyl)pyrrolidin-3-yl]carbonyl}-4-(4-fluorophenyl)-3,5-dimethylpiperidin-4-ol hydrochloride], the EC50 is reported as under 10 nM.

Same assay, conditions: Table 6, read-out: MCR4 EC50
In the case of `C[C@@H]1CN(C(=O)[C@@H]2CNC[C@H]2c2ccc(F)cc2F)C[C@H](C)[C@@]1(O)c1ccc(F)cc1F` [Example 16, (3R,4R,5S)-4-(2,4-difluorophenyl)-1-{[(3S,4R)-4-(2,4-difluorophenyl)pyrrolidin-3-yl]carbonyl}-3,5-dimethylpiperidin-4-ol hydrochloride], the EC50 is reported as 54 nM. `C[C@@H]1CN(C(=O)[C@@H]2CN(c3cccnc3)C[C@H]2c2ccc(F)cc2F)C[C@H](C)[C@@]1(O)c1ccccc1` [Example 34, (3R,4R,5S)-1-{[(3S,4R)-4-(2,4-Difluorophenyl)-1-pyridin-3-ylpyrrolidin-3-yl]carbonyl}-3,5-dimethyl-4-phenylpiperidin-4-ol hydrochloride] was tested, and the EC50 was 4 nM.

Same assay, conditions: functional potency at the MC4 receptor (EC50), Protocols C or E
In the case of `C[C@@H]1CN(C(=O)[C@@H]2CN(C(C)(C)C)C[C@H]2c2ccc(F)cc2F)C[C@H](C)[C@@]1(O)c1cccc(F)c1` [Example 19, (3R,4R,5S)-1-{[(3S,4R)-1-tert-butyl-4-(2,4-difluorophenyl)pyrrolidin-3-yl]carbonyl}-4-(3-fluorophenyl)-3,5-dimethylpiperidin-4-ol hydrochloride], the EC50 is reported as under 10 nM. `CCN1C[C@@H](C(=O)N2C[C@@H](C)[C@](O)(c3cccc(F)c3)[C@@H](C)C2)[C@H](c2ccc(F)cc2F)C1` [Example 53, (3R,4R,5S)-1-{[(3S,4R)-4-(2,4-difluorophenyl)-1-ethylpyrrolidin-3-yl]carbonyl}-4-(3-fluorophenyl)-3,5-dimethylpiperidin-4-ol hydrochloride] was tested, and the EC50 was under 50 nM.
